Each structure is given as a SMILES string.

For the experiment, the target named is T1, CFTR (Homo sapiens, UniProt P13569, DEL508-508).
T1 construct: Primary CF airway epithelial cells were obtained from the UNC Cystic Fibrosis Tissue Procurement and Cell Culture Core; host or cells: primary CF airway epithelial cells, differentiated at the air-liquid interface
The experiment is described as follows: Equivalent current assay in primary CF airway epithelial cells (NAUC, combination with 1st site corrector FDL169 or VX-809). It counts as cell-based. Particulars: 37° C., 24 h; for Nauc @ 10 μM: test compound 10 μM in combination with 1st site corrector VX-809 (3 μM). On the procedure: Primary CF airway epithelial cells were obtained from the UNC Cystic Fibrosis Tissue Procurement and Cell Culture Core. The cells are grown at 37° C. in a Heracell 150i incubator using growth media (BEGM, Fischer). […] Two days before the Ussing assay the mucus on the apical surface of the cells was aspirated after incubating with 200 μL of differentiation media for at least thirty (30) minutes. One day before the Ussing assay test compounds were added to the basolateral surface of the cells at various test concentrations dissolved in DMSO. Duplicate wells were prepared giving a n=3 or n=4 protocol.
Cells were treated for 24 hours with various combinations and concentrations of the test articles, reference standard (3 μM VX809 or 3 μM FDL169, positive control). Compounds stock solutions were prepared in DMSO and diluted 1/1000 into ALI media to their final assay concentration. Cells were treated with combination solutions (2 mL of each dilution) and incubated at 37° C. for 24 h.
For the equivalent current assay, cells on four Transwell (24-well) plates were treated. Each Transwell plate was filled with 200 μl of HBS on the apical surface and 2 ml on the basolateral surface. Plates were placed horizontally in a heated mount at 37° C., and equilibrated for several minutes. Resting current was measured for 15 min and then blocked by the apical addition of 5 μM benzamil. After 20 min, 10 μM forskolin and 1 μM VX770 were added to both the apical and basolateral side to stimulate CFTR. An increase in chloride current is seen as an upward deflection of the trace.
The raw data, current vs. time for the Ussing chamber (sampling interval: 10 s) and voltage vs. time and resistance vs. time for the equivalent current assay (sampling interval: 5 minutes) were transferred to Excel (Microsoft Office Professional, version 14.0.7106.5003) for analysis. […] This average is equivalent to the sum of the average forskolin activated and the average VX770-potentiated currents. The average current measured in vehicle (0.1% DMSO) treated cells, Iv, was subtracted from the current for the test article, ITA, or from the corrector reference standard VX809 (3 uM ISTD). For replicate measurements, the average vehicle subtracted response for the test article, was normalized to the average vehicle subtracted inhibitor response of the reference corrector VX809 (3 μM).
A second endpoint, for the equivalent current assay, evaluated was NAUC, the normalized area under the curve (AUC) measuring the response after addition of forskolin and VX770 to the time point right before the addition of the CFTR inhibitor. The AUC is effectively the average response multiplied by the duration of the response.
NAUCTA=[AUCTA−AUCV,ave]/[AUCVx809r,ave−AUCV,ave] (Equation 2).
Experiments were run with a minimum of n=4 replicates per concentration. Since the distribution for the ratio of two normal distributions is a Cauchy distribution, the median value must be used for the average and the average deviation must be used for the error of all normalized data.
E=Emin+(Emax−Emin)/(1+10^((LogEC5OS)*nH)) (Equation 3)

Where [1] appears, read: test compound 3 μM in combination with 1st site corrector VX-809 (3 μM).
[2] abbreviates: test compound 1 μM in combination with 1st site corrector VX-809 (3 μM).

T1 sequence (P13569 with tags, fused parts or gaps DEL508-508): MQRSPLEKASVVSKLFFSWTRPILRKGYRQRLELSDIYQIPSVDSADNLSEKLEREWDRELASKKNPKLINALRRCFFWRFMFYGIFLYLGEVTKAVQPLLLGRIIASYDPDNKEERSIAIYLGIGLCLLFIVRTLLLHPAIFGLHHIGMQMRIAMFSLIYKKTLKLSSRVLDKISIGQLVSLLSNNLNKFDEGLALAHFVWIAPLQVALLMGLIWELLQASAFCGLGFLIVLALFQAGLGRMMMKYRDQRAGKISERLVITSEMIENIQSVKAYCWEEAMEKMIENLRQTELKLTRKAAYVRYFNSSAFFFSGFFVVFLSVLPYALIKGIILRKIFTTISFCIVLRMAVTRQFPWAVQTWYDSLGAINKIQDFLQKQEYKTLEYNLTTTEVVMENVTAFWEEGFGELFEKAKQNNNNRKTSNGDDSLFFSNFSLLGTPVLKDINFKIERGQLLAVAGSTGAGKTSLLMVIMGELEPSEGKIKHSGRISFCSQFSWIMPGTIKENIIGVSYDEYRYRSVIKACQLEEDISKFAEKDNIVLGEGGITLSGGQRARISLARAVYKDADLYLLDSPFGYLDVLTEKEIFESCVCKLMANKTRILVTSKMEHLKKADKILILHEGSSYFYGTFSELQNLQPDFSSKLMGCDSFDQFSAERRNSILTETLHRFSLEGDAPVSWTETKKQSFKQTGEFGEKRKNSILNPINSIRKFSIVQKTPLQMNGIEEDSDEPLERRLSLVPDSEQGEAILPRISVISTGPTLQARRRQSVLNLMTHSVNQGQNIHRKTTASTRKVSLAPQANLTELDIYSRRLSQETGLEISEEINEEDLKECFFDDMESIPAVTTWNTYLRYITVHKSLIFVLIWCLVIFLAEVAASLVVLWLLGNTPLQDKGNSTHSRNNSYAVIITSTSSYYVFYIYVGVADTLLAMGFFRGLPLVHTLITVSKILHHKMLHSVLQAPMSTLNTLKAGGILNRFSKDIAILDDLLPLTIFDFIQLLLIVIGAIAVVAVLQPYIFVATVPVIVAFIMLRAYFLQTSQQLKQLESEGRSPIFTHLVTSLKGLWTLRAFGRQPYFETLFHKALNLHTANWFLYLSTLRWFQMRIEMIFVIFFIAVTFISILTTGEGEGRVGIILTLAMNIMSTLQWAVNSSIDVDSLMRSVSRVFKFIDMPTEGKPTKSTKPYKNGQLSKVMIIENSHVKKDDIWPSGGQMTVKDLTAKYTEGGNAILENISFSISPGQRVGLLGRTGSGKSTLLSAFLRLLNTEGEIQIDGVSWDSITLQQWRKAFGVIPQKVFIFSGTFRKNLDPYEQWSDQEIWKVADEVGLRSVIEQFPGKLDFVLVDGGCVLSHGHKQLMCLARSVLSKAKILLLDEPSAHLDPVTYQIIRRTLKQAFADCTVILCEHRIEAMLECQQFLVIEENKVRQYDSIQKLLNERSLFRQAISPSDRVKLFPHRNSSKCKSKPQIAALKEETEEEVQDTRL

`CC(C)(C)c1cccc(CCNC(=O)C2C3CC(F)(F)CN3C3(C(=O)Nc4c(Cl)cc(Cl)cc43)C2C(=O)O)c1` (racemic) [Example 44, (1′R,2′S,3R,7a′R)-1′-((3-(tert-butyl)phenethyl)carbamoyl)-5,7-dichloro-6′,6′-difluoro-2-oxo-1′,2′,5′,6′,7′,7a′-hexahydrospiro[indoline-3,3′-pyrrolizine]-2′-carboxylic acid]: the “Nauc @ 10 μM” value is recorded as “+++ (NAUC “+++” refers to an observed NAUC>170% of positive control)”. Also, the “Nauc @ 3 μM” value under setting [1] is “+++ (NAUC “+++” refers to an observed NAUC>170% of positive control)”.

`CN(C(=O)[C@H]1[C@H]2CC(F)(F)CN2[C@]2(C(=O)Nc3c2ccc(Cl)c3Cl)[C@H]1C(=O)O)c1cc(Cl)cc(Cl)c1` (racemic) [Example 100, rac-(1′R,2′S,7a′R)-6,7-dichloro-1-((3,5-dichlorophenyl)(methyl)carbamoyl)-6′,6′-difluoro-2-oxo-1′,2′,5′,6′,7′,7a′-hexahydrospiro[indoline-3,3′-pyrrolizine]-2′-carboxylic acid]: the “Nauc @ 10 μM” value is “+ (NAUC “+” refers to an observed NAUC <140% of positive control)”. Moreover, the “Nauc @ 1 μM” value under setting [2] is on record as “+ (NAUC “+” refers to an observed NAUC <140% of positive control)”. Also, under setting [1], the “Nauc @ 3 μM” value is reported as “+ (NAUC “+” refers to an observed NAUC <140% of positive control)”.

`CN(C(=O)[C@H]1[C@H]2CCCCN2[C@]2(C(=O)Nc3c(Cl)cc(Cl)cc32)[C@H]1C(=O)O)c1cc(Cl)cc(Cl)c1` (racemic) [Example 219, rac-(1′R,2′S,3R,8a′R)-5,7-dichloro-1′-((3,5-dichlorophenyl)(methyl)carbamoyl)-2-oxo-1′,5′,6′,7′,8′,8a′-hexahydro-2′H-spiro[indoline-3,3′-indolizine]-2′-carboxylic acid]: the “Nauc @ 1 μM” value (test compound 1 μM in combination with 1st site corrector FDL169 (3 μM)) is reported as “++ (NAUC “++” refers to an observed NAUC 170-140% of positive control)”. Besides, for the setting “test compound 3 μM in combination with 1st site corrector FDL169 (3 μM)”, the “Nauc @ 3 μM” value was “+ (NAUC “+” refers to an observed NAUC <140% of positive control)”.

As to `CN(C(=O)[C@H]1[C@H]2CC(F)(F)CN2C2(C(=O)Nc3c(Cl)cc(Cl)cc32)[C@H]1C(=O)NS(=O)(=O)c1ccccc1)c1cc(Cl)cc(Cl)c1` (mixture of isomers) [Example 230, rel-(1′R,2′S,3R,7a′R)-5,7-dichloro-N1′-(3,5-dichlorophenyl)-6′,6′-difluoro-N1′-methyl-2-oxo-N2′-(phenylsulfonyl)-1′,2′,5′,6′,7′,7a′-hexahydrospiro[indoline-3,3′-pyrrolizine]-1′,2′-dicarboxamide], the “Nauc @ 10 μM” value was “+ (NAUC “+” refers to an observed NAUC <140% of positive control)”.

For `Cc1oc(=O)oc1COC(=O)[C@H]1[C@@H](C(=O)N(C)c2cc(Cl)cc(Cl)c2)[C@H]2CC(F)(F)CN2C12C(=O)Nc1c(Cl)cc(Cl)cc12` (mixture of isomers) [Example 250.3a, rac-(5-methyl-2-oxo-1,3-dioxo1-4-yl)methyl (1′R,2′S,3R,7a′R)-5,7-dichloro-1-((3,5-dichlorophenyl)(methyl)carbamoyl)-6′,6′-difluoro-2-oxo-1′,2′,5′,6′,7′,7a′-hexahydrospiro[indoline-3,3′-pyrrolizine]-2′-carboxylate], the “Nauc @ 10 μM” value was “+++ (NAUC “+++” refers to an observed NAUC>170% of positive control)”.

As for `Cc1oc(=O)oc1COC(=O)[C@H]1[C@@H](C(=O)N(C)c2cc(Cl)cc(Cl)c2)[C@H]2CC(F)(F)CN2C12C(=O)N(Cc1oc(=O)oc1C)c1c(Cl)cc(Cl)cc12` (mixture of isomers) [Example 250.3b, rac-(5-methyl-2-oxo-1,3-dioxo1-4-yl)methyl (1′R,2′S,3R,7a′R)-5,7-dichloro-1′-((3,5-dichlorophenyl)(methyl)carbamoyl)-6′,6′-difluoro-1-45-methyl-2-oxo-1,3-dioxol-4-yl)methyl)-2-oxo-1′,2′,5′,6′,7′,7a′-hexahydrospiro[indoline-3,3′-pyrrolizine]-2′-carboxylate], the “Nauc @ 10 μM” value is given as “+ (NAUC “+” refers to an observed NAUC <140% of positive control)”.

Regarding `CN(C(=O)[C@H]1[C@H]2CC(F)(F)CN2[C@]2(C(=O)Nc3c(Cl)cc(Cl)cc32)[C@H]1C(=O)OCOC(=O)C(C)(C)C)c1cc(Cl)cc(Cl)c1` (racemic) [Example 251a, rac-(pivaloyloxy)methyl (1′R,2′S,3R,7a′R)-5,7-dichloro-1-((3,5-dichlorophenyl)(methyl)carbamoyl)-6′,6′-difluoro-2-oxo-1′,2′,5′,6′,7′,7a′-hexahydrospiro[indoline-3,3′-pyrrolizine]-2′-carboxylate], the “Nauc @ 10 μM” value was “+ (NAUC “+” refers to an observed NAUC <140% of positive control)”.

Turning to `CN(C(=O)[C@H]1[C@H]2CC(F)(F)CN2[C@]2(C(=O)N(COC(=O)C(C)(C)C)c3c(Cl)cc(Cl)cc32)[C@H]1C(=O)OCOC(=O)C(C)(C)C)c1cc(Cl)cc(Cl)c1` (racemic) [Example 251c, rac-(pivaloyloxy)methyl (1′R,2′S,3R,7a′R)-5,7-dichloro-1-((3,5-dichlorophenyl)(methyl)carbamoyl)-6′,6′-difluoro-2-oxo-1-((pivaloyloxy)methyl)-1′,2′,5′,6′,7′,7a′-hexahydrospiro[indoline-3,3′-pyrrolizine]-2′-carboxylate], the “Nauc @ 10 μM” value is recorded as “+ (NAUC “+” refers to an observed NAUC <140% of positive control)”.

For the compound `CC(=O)OCOC(=O)[C@H]1[C@@H](C(=O)N(C)c2cc(Cl)cc(Cl)c2)[C@H]2CC(F)(F)CN2C12C(=O)Nc1c(Cl)cc(Cl)cc12` (mixture of isomers) [Example 257, acetoxymethyl (1′R,2′S,3R,7a′R)-5,7-dichloro-1-((3,5-dichlorophenyl)(methyl)carbamoyl)-6′,6′-difluoro-2-oxo-1′,2′,5′,6′,7′,7a′-hexahydrospiro[indoline-3,3′-pyrrolizine]-2′-carboxylate], the “Nauc @ 10 μM” value is given as “+++ (NAUC “+++” refers to an observed NAUC>170% of positive control)”.

Take `CN(C(=O)[C@H]1[C@@H](C(F)(F)F)NC2(C(=O)N(C)c3c(Cl)cc(Cl)cc32)[C@H]1C(=O)O)c1cc(Cl)cc(Cl)c1` (mixture of isomers) [Example 271, rac-(3′S,4′R,5′S)-5,7-dichloro-4′-((3,5-dichlorophenyl)(methyl)carbamoyl)-1-methyl-2-oxo-5′-(trifluoromethyl)spiro[indoline-3,2′-pyrrolidine]-3′-carboxylic acid]: the “Nauc @ 10 μM” value is on record as “+ (NAUC “+” refers to an observed NAUC <140% of positive control)”. Besides, the “Nauc @ 1 μM” value under setting [2] was “+ (NAUC “+” refers to an observed NAUC <140% of positive control)”. For the same compound, under setting [1], the “Nauc @ 3 μM” value is “+++ (NAUC “+++” refers to an observed NAUC>170% of positive control)”.

As to `CC(C)(C)c1cccc(C(C)(C)CNC(=O)[C@H]2[C@H]3CC(F)(F)CN3[C@]3(C(=O)Nc4c(Cl)cc(Cl)cc43)[C@H]2C(=O)O)c1` (racemic) [Example 288b, rac-(1′R,2′S,3R,7a′R)-1′-((2-(3-(tert-butyl)phenyl)-2-methylpropyl)carbamoyl)-5,7-dichloro-6′,6′-difluoro-2-oxo-1′,2′,5′,6′,7′,7a′-hexahydrospiro[indoline-3,3′-pyrrolizine]-2′-carboxylic acid], the “Nauc @ 10 μM” value was “+ (NAUC “+” refers to an observed NAUC <140% of positive control)”.
